Reference: publication PMC2579677 (British Journal of Cancer, 2008)
“And” between values parts separate entries of the source, which are not always exact repeats. Equal values may be shown once. Read-outs that look alike come from different tables or passages of the source.

Assays:
[1] = test system: MDA-MB-231 xenograft tumours; experiment: MDA-MB-231 xenograft tumour growth inhibition; details: 21 days
[2] = cited from earlier work
[3] = test system: bFGF-stimulated angiogenesis in Matrigel plugs; set-up: method as in Chander et al, 2007; details: ref Chander et al, 2007, cited from earlier work
range of cell lines = details: 2003, 2005, cited from earlier work; for difference in antiproliferative activity relative to 2-MeOE2: some investigations, ref Day et al, Wood et al, 2004, Leese et al
[4] = test system: bFGF-stimulated angiogenesis in Matrigel plugs; experiment: In vivo angiogenesis assay (bFGF-supplemented Matrigel plug, FITC-dextran); set-up: species or system C57BL/6J mice; details: for reduction of level of angiogenesis: 10 mg kg^−1 orally daily for four days, compared with bFGF-only
Protocol: The antiangiogenic potential of STX243 was assessed using a modified Matrigel plug assay as described earlier ([Passaniti et al, 1992]; [Prewett et al, 1999]; [Chander et al, 2007]). The female C57BL/6J mice used in this study were obtained from Harlan (Bicester). The mice were anaesthetised, placed on a heated pad (37°C) and 0.5 ml of ice-cold Matrigel supplemented with 500 ng of basic fibroblast growth factor (bFGF) was injected subcutaneously into the flanks of each mouse. Control mice received Matrigel without bFGF. The mice were subsequently weighed before returning the mice to their isolator. After 24 h of Matrigel injection, the mice were placed into the following treatment groups: control, bFGF-only, bFGF plus STX140 (10 mg kg^−1, orally) and bFGF plus STX243 (10, 20 or 40 mg kg^−1, orally). Control and bFGF-only animals were dosed orally with vehicle (10% THF, 90% PG). The animals were dosed every day for four days with five animals per treatment group. Quantification of the blood vessels within the Matrigel plugs was facilitated through the intravenous injection of 100 μl of 0.25 mg ml^−1 FITC-dextran (250 000 molecular weight) seven days after the Matrigel injection. FITC-dextran injection allows for visualisation of the blood vessels that has been recently formed in the matrigel plugs. The animals were killed 20 min after the injection of the FITC-dextran. The mice were subsequently weighed and the Matrigel plugs were removed. The Matrigel plugs were photographed and subsequently dissolved in 1 ml Dispase reagent for 16 h at 37°C. The resulting mixture was centrifuged at 15 700 g (20°C) for 30 s. The fluorescence of the supernatant was measured using a FLUOstar OPTIMA fluorimeter (BMG Labtech Ltd., Aylesbury, Bucks, UK). The excitation and emission wavelengths used were 480 and 520 nm, respectively. The fluorescence of the samples was quantitated using a standard curve of FITC-dextran (0.4–25 μg ml^−1).

[5] = set-up: method as in Foster et al, 2008; details: single oral administration; ref Foster et al, 2008; cited from earlier work
HUVECs = experiment: In vitro angiogenesis kit: VEGF-stimulated vessel formation in HUVEC/fibroblast coculture; format: cell-based, human; details: VEGF 2 ng ml^−1 stimulated, day 11
Protocol: The effects of the compounds on in vitro vessel formation were assessed using an angiogenesis kit (TCS Cellworks, Claydon, UK). For this assay, HUVECs (obtained from TCS Cellworks) were cultured in a 24-well plate within a matrix of human diploid fibroblasts of dermal origin in an optimised medium (TCS Cellworks) supplemented with 2 ng ml^−1 vascular endothelial growth factor (VEGF). The cocultured cells were incubated throughout the experiment at 37°C under 5% CO2 in a humidified incubator. On day 1, the culture medium was removed and replaced with medium containing the compounds under investigation. The vehicle used for the dilution of compound was tetrahydrofuran (THF). The final concentration of THF in the medium was 0.001 (100 nM dose) to 0.00025% (25 nM dose). On days 4, 7 and 9, the medium was replaced with fresh medium containing the compounds. Each compound was tested in triplicate. On day 11, the cells were washed (phosphate-buffered saline) and 70% ethanol (1 ml) was added to each well for 30 min to fix the cells. After fixation, the cells were washed with blocking buffer (1 ml, phosphate-buffered saline+1% bovine serum albumin) and stained for CD31 according to the manufacturer's instructions (TCS Cellworks).
The extent of vessel formation was then quantified using a variation of an earlier described technique ([Newman et al, 2004]). Briefly, using a high-resolution transmissive scanner (ScanMaker 9800, Microtek, Willich, Germany), each well was scanned and saved as a tagged image format (TIF) file in Photoshop (Adobe, San Jose, CA, USA). The image was then converted to a black and white image using the photocopy filter in Photoshop ( × 2, 10 detail and 25 darkness) and saved as an uncompressed TIF file. The files were transferred to the AngioSys software (TCS Cellworks), all background and non-tubule-like structures were removed using erode ( × 1) and clean (100 pixels) functions, and the number of pixels representing vessels was counted. This technique was validated (data not shown) against the quantification techniques as described earlier ([Newman et al, 2004]).

[6] = Pharmacokinetics of STX243 in plasma (HPLC); format: in vivo, female Wistar rats; details: for clearance / MRT / Vd / half-life / Cmax: female, Wistar; for clearance / MRT / Vd / half-life: rat, plasma; for clearance: read-out: Cl (total body clearance) (converted); for MRT: read-out: MRT (mean residence time); for Vd: read-out: VD (volume of distribution); for half-life: read-out: t1/2β (elimination half-life) (converted)
[7] = test system: MCF-7dox40 xenograft tumours; experiment: Paclitaxel-resistant MCF-7dox40 xenograft tumour growth inhibition; format: in vivo, MF-1 nu/nu mice; details: 28 days
[8] = test system: MCF-7wt xenograft tumours; experiment: MCF-7wt xenograft tumour growth inhibition; format: in vivo, MF-1 nu/nu mice; details: 28 days, compared with vehicle-only
[9] = test system: human umbilical vein endothelial cell (HUVEC); set-up: method as in Newman et al, 2004; details: ref Newman et al, 2004; cited from earlier work
[10] = test system: MCF-7dox40 xenograft tumours; set-up: method as in Newman et al, 2008; details: ref Newman et al, 2008; cited from earlier work
[11] = 40 mg kg^−1 orally daily, compared with vehicle-only

## COc1cc2c(cc1O)CC[C@@H]1[C@@H]2CC[C@]2(C)[C@@H](O)CC[C@@H]12 [2-MeOE2, 2-methoxyoestradiol, reference compound]
[1]; [11]
  tumour growth inhibition: No significant tumour inhibition
[1]; 75 mg kg^−1 orally daily
  tumour growth inhibition: No significant tumour inhibition
[2]; 10 mg kg^−1 intravenous, HPLC, ref Ireson et al, 2004
  plasma concentration 1 h after intravenous dosing: below the LOD
[3]; 10 mg kg^−1 dose
  angiogenesis inhibition in Matrigel plugs: no significant inhibition
[3]; 50 mg kg^−1 orally
  angiogenesis inhibition in Matrigel plugs: Angiogenesis inhibition was only observed

## CCc1cc2c(cc1OS(N)(=O)=O)CCC1C2CC[C@@]2(C)C1CC[C@@H]2OS(N)(=O)=O (stereo partly drawn) [STX243, 2-ethyloestradiol-3,17-O,O-bis-sulphamate]
[1]; [11]
  tumour growth inhibition: 72% and 72±13%
Range of cell lines; range of cell lines, ref Suzuki et al, Raobaikady et al
  potency at inhibiting cell proliferation relative to STX140: equipotent to STX140
Range of cell lines
  difference in antiproliferative activity relative to 2-MeOE2: 10 fold
[4]
  reduction of level of angiogenesis: 50% and 50±6%
[4]; all doses investigated (10, 20 or 40 mg kg^−1 orally), P<0.001 vs bFGF-only
  growth of new blood vessels in Matrigel plugs: significantly inhibited
[5]
  maximum-tolerated dose: 300 mg/kg
HUVECs; 25 nM
  vessel formation: only a small inhibition
HUVECs; 50 nM
  vessel formation: significant inhibition of vessel formation
HUVECs; 100 nM
  vessel (tubule) formation: completely blocked all tubule formation
[6]; Intravenous 10 mg kg^−1
  AUC: 42 hμg ml^−1
  AUMC: 267 h^2μg ml^−1
  clearance: 3.92 mL/min/kg
  MRT: 6.28 h
  Vd: 1.48 L/kg
  half-life: 4.78 h
[6]; Intravenous 40 mg kg^−1
  AUC: 126 hμg ml^−1
  AUMC: 558 h^2μg ml^−1
  clearance: 5.3 mL/min/kg
  MRT: 4.44 h
  Vd: 1.41 L/kg
  half-life: 3.18 h
[6]; Oral 10 mg kg^−1
  AUC: 13 hμg ml^−1
  AUMC: 219 h^2μg ml^−1
  Bioavailability (% F): 31 % F and 30.7 % F
  time of highest plasma concentration: 4 h
  MRT: 16.8 h
  half-life: 11.4 h
[6]; Oral 40 mg kg^−1
  AUC: 23 hμg ml^−1
  AUMC: 157 h^2μg ml^−1
  Bioavailability (% F): 18 % F
  time of highest plasma concentration: 8 h
  MRT: 6.93 h
  half-life: 1.88 h
[6]; Intravenous 10 mg kg^−1, rat plasma
  Cmax: 13100 ng/mL
[6]; Intravenous 40 mg kg^−1, rat plasma
  Cmax: 44800 ng/mL
[6]; Oral 10 mg kg^−1, rat plasma
  Cmax: 640 ng/mL
[6]; Oral 40 mg kg^−1, rat plasma
  Cmax: 1760 ng/mL
[6]; intravenous or oral, 10 or 40 mg kg^−1, HPLC
  metabolism (to putative metabolite STX1813) in plasma: no significant metabolism
[7]; [11]
  tumour growth inhibition: 74±4%
[8]; 40 mg kg^−1 orally daily
  tumour growth inhibition: 87±5%

## COc1cc2c(cc1OS(N)(=O)=O)CCC1C2CC[C@@]2(C)C1CC[C@@H]2OS(N)(=O)=O (stereo partly drawn) [STX140, 2-MeOE2-3,17-O,O-bis-sulphamate]
[1]; 20 mg kg^−1 orally daily, compared with vehicle-only
  tumour growth inhibition: 63% and 63±7%
Range of cell lines
  difference in antiproliferative activity relative to 2-MeOE2: 10 fold
[4]
  reduction of level of angiogenesis: 72% and 72±5%
[5]
  maximum-tolerated dose: 150 mg/kg
[2]; rat, in vivo, iv
  maximum concentration in plasma: 6.6 µg/mL
[2]; rat, in vivo, po, 10 mg/kg
  oral bioavailability: 85%
[2]; rat, in vivo, po
  maximum concentration in plasma: 3.9 µg/mL
  time of peak plasma concentration: 3 h
[9]
  effectiveness at inhibiting HUVEC proliferation relative to 2-MeOE2: 60 fold
[10]
  inhibition of growth of MCF-7dox40 tumours: capable of inhibiting the growth of MCF-7dox40 tumours

## CC(=O)O[C@H]1C(=O)[C@@]2(C)[C@H]([C@H](OC(=O)c3ccccc3)[C@]3(O)C[C@H](OC(=O)[C@H](O)[C@@H](NC(=O)c4ccccc4)c4ccccc4)C(C)=C1C3(C)C)[C@]1(OC(C)=O)CO[C@@H]1C[C@@H]2O [paclitaxel, reference compound]
[7]; 15 mg kg^−1 intravenous weekly
  tumour growth inhibition: only STX243 was capable of significantly inhibiting the growth
[8]; 15 mg kg^−1 intravenous weekly
  tumour growth inhibition: 87±6%
